The text below walks through data of patent publication US20250051724A1, “MEDIUM COMPOSITION FOR CULTURING PORCINE PLURIPOTENT STEM CELLS” (SPACE F CORPORATION, priority 2022, published 2025).

What all share (assay type): cell-based
Data set [1] relates to porcine embryonic stem cells.
In data set [2] the test system is porcine embryonic stem cells. Particulars: for proportion of cells undergoing cell division / proliferation rate as the concentration increased (Ki-67): various concentrations in LDN-193189-containing medium.
The subject of data set [3] is porcine embryonic stem cells. As to the method: To analyze the effect of LDN-193189, which is an ALK2/3 inhibitor, on feeder cell-free culture of porcine embryonic stem cells, LDN-193189 cytotoxicity was confirmed through annexin V staining (FIG. 1). […] In addition, treatment at a concentration of 1000 nM or more for 24 hours or more induced apoptosis of most cells.
To confirm the optimal concentration of “FF-embryonic stem cell culture medium” containing LDN-193189 from 100 nM to 1000 nM, the concentration was subdivided and annexin V staining was performed (FIG. 3A). […] In fact, LDN-193189 is known to inhibit the activin A signaling system involved in stem cell proliferation at high concentrations.
The source holds these as a separate data set.

For data set [4], the system named is porcine embryonic stem cells. Description: qPCR gene expression analysis in feeder cell-free culture. Particulars: LDN-193189 250 nM, cultured without feeder cells. Here is the method:
To analyze the expression level of pluripotency-related genes, differentiation-related genes, and the like depending on the culture period, porcine embryonic stem cells were cultured using “FF-embryonic stem cell culture medium” containing 100 nM LDN-193189 (ff-ESCs^LDN+) and “FF-embryonic stem cell culture medium” not containing LDN-193189 (ff-ESCs^LDN−), without feeder cells, and porcine embryonic stem cells were cultured as a control using the aforementioned embryonic stem cell culture medium along with feeder cells (control ESCs).
The cells were obtained on days 2, 4 and 6 after plating using each medium. Total RNA was extracted using TRIzol reagent (Invitrogen, Carlsbad, USA) and cDNA was synthesized using High-Capacity RNA-to-cDNA Kit (Applied Biosystems, Foster City, USA). cDNA was amplified using the DyNAmo HS SYBR Green qPCR kit (Thermo Fisher Scientific, Waltham, USA) with the primer sets listed in Table 1.
In addition, as shown in C and D of FIG. 2, the effect of treatment with LDN-193189 (250 nM), which is an inhibitor of the SMAD1/5 signaling system, on feeder cell-free culture of porcine embryonic stem cells was confirmed.
Background: Real-time PCR tracks product formation cycle by cycle.

Data set [5] relates to porcine embryonic stem cells. Kind of data set: qPCR analysis in culture medium containing FBS. Conditions: environment containing FBS.
The test system of data set [6] is porcine embryonic stem cells grown on feeder cells. Kind of data set: qPCR analysis of cells grown on feeder cells. The text has this: Treatment with LDN-193189 reduced the spontaneous differentiation of porcine embryonic stem cells grown on feeder cells and enhanced the expression of the SSEA4 marker. This is presumed to be because it suppresses the SMAD1/5 signaling system involved in mesodermal differentiation and activates the SMAD2/3 signaling involved in the proliferation of stem cells. In addition, qPCR analysis confirmed that treatment with LDN-193189 reduced the expression of genes involved in the development of various mesodermal tissues.

Data set [7] has as its system porcine embryonic stem cells. Description: immunological staining of NANOG and SSEA4 in culture medium containing FBS. Conditions: culture medium in which KSR was replaced with FBS. The source says:
In addition, it was confirmed whether the substance helps maintain the pluripotency of porcine embryonic stem cells in a culture medium containing fetal bovine serum (FBS), rather than a serum replacement.
As a result of confirming the pluripotency markers NANOG and SSEA4 through immunological staining, the culture medium containing FBS induced differentiation of porcine embryonic stem cells, and many cell colonies with reduced expression of NANOG and SSEA4 were discovered.

Data set [8] relates to porcine embryonic stem cells grown on feeder cells. Description: pluripotency marker staining of cells grown on feeder cells. The source says: The effect of medium for feeder cell-free culture containing LDN-193189 on porcine embryonic stem cells grown on feeder cells was confirmed.

For `O=C(Nc1cccc2cccnc12)c1ccc(N2C(=O)[C@@H]3[C@H](C2=O)[C@@H]2C=C[C@H]3C2)cc1` [IWR-1], in data set [1], the cytotoxicity entry is listed as “showed cytotoxicity at high concentrations”. In addition, the “concentration showing the highest cellular activity” value in data set [1] (various concentrations) turned out to be 0.5 µM. Moreover, the “proportion of cells undergoing cell division / proliferation rate as the concentration increased (Ki-67)” value in data set [2] was “gradually increased”.
As for `c1ccc2c(-c3cnn4cc(-c5ccc(N6CCNCC6)cc5)cnc34)ccnc2c1` [LDN-193189], the “final treatment concentration (maximum concentration that inhibits only the BMP signaling system and does not cause cytotoxicity)” value in data set [1] is 100 nM. The “concentration with high cytotoxicity (annexin V staining)” value in data set [3] was no less than 1000 nM. Moreover, in data set [4], the “expression of genes involved in pluripotency and mesodermal tissue development” value is given as “restored to the level when cultured on the feeder cells”. Further, in data set [2] (from 100 nM to 1000 nM), the Ki-67 staining result is “no significant difference”. The “expression of mesoderm-related genes (qPCR)” value in data set [5] is “reduced”. In addition, the “expression of genes involved in the development of mesodermal tissues (qPCR)” value in data set [6] is on record as “reduced”. For the same compound, the “FBS-induced differentiation (colonies with reduced expression of NANOG and SSEA4)” value in data set [7] is recorded as “alleviated”. Further, in data set [8], the “expression of the SSEA4 marker” value is on record as “enhanced” and the spontaneous differentiation entry is on record as “reduced”.
For the compound “FGF2: fibroblast growth factor 2 (hrFGF2, R&D Systems)”, in data set [1], the “concentration at which cell activity decreased due to cytotoxicity (WST-8)” value was no less than 100 ng/mL. Besides, the “proportion of cells undergoing cell division / proliferation rate as the concentration increased (Ki-67)” value in data set [2] is on record as “gradually increased”.
As for `Cc1c[nH]c(-c2cnc(NCCNc3ccc(C#N)cn3)nc2-c2ccc(Cl)cc2Cl)n1` [CHIR99021], the “proportion of cells undergoing cell division / proliferation rate as the concentration increased (Ki-67)” value in data set [2] was “gradually decreased”.
“activin A: ActA (activin; activin A) (R&D Systems), cytokine in culture medium”: the “concentration at which cell activity decreased due to cytotoxicity (WST-8)” value in data set [1] was no less than 10 ng/mL. Besides, the “concentration with decreased proliferation rate (Ki-67)” value in data set [2] was no less than 0.01 µg/mL.
